In the NIST ThermoML archive (doi:10.1021/je1005533):
Numbers after ± are expanded uncertainties.

Assay: refractive index (other wavelength) (dimensionless); xn = mol fraction of the nth substance listed
Settings: 101.3 kPa, Liquid, Wavelength=632.8 nm, Standard Abbe refractometry

Compound `CCCCCCCCCCCCCCCC` [hexadecane] + COC(=O)OC has a refractive index (308.19 K, x2 = 0.132) of 1.4228 ± 0.0007, a refractive index (308.21 K, x2 = 0) of 1.427 ± 0.0007 and a refractive index (308.29 K, x2 = 0.397) of 1.4128 ± 0.0007. The refractive index (308.35 K, x2 = 0.219) was 1.4197 ± 0.0007, the refractive index (308.4 K, x2 = 0.291) was 1.417 ± 0.0007 and the refractive index (309.24 K, x2 = 0) was 1.4265 ± 0.0007. It also gave a refractive index (309.25 K, x2 = 0.132) of 1.4224 ± 0.0007, a refractive index (309.32 K, x2 = 0.397) of 1.4123 ± 0.0007 and a refractive index (309.54 K, x2 = 0.291) of 1.4164 ± 0.0007. The refractive index (309.66 K, x2 = 0.219) was 1.4191 ± 0.0007, the refractive index (310.21 K, x2 = 0) was 1.4261 ± 0.0007 and the refractive index (310.33 K, x2 = 0.132) was 1.4219 ± 0.0007. For the same compound, the refractive index (310.38 K, x2 = 0.397) was 1.4118 ± 0.0007, the refractive index (310.83 K, x2 = 0.291) was 1.4158 ± 0.0007 and the refractive index (311.09 K, x2 = 0.219) was 1.4185 ± 0.0007. It also gave a refractive index (311.24 K, x2 = 0) of 1.4256 ± 0.0007, a refractive index (311.39 K, x2 = 0.132) of 1.4214 ± 0.0007 and a refractive index (311.42 K, x2 = 0.397) of 1.4113 ± 0.0007. It also gave a refractive index (312.09 K, x2 = 0.291) of 1.4153 ± 0.0007, a refractive index (312.18 K, x2 = 0.6) of 1.4005 ± 0.0007 and a refractive index (312.2 K, x2 = 0.517) of 1.4052 ± 0.0007. It also gave a refractive index (312.3 K, x2 = 0) of 1.4252 ± 0.0007, a refractive index (312.43 K, x2 = 0.132) of 1.421 ± 0.0007 and a refractive index (312.46 K, x2 = 0.397) of 1.4108 ± 0.0007. It also gave a refractive index (312.54 K, x2 = 0.219) of 1.4179 ± 0.0007, a refractive index (313.16 K, x2 = 0.517) of 1.4048 ± 0.0007 and a refractive index (313.32 K, x2 = 0.6) of 1.3999 ± 0.0007. It also gave a refractive index (313.33 K, x2 = 0.291) of 1.4147 ± 0.0007, a refractive index (313.34 K, x2 = 0) of 1.4248 ± 0.0007 and a refractive index (313.51 K, x2 = 0.132) of 1.4206 ± 0.0007. The refractive index (313.53 K, x2 = 0.397) was 1.4104 ± 0.0007, the refractive index (313.95 K, x2 = 0.219) was 1.4173 ± 0.0007 and the refractive index (314.26 K, x2 = 0.517) was 1.4043 ± 0.0007. The refractive index (314.44 K, x2 = 0) was 1.4244 ± 0.0007, the refractive index (314.44 K, x2 = 0.6) was 1.3994 ± 0.0007 and the refractive index (314.55 K, x2 = 0.132) was 1.4201 ± 0.0007. For the same compound, the refractive index (314.62 K, x2 = 0.397) was 1.41 ± 0.0007, the refractive index (314.63 K, x2 = 0.291) was 1.4142 ± 0.0007 and the refractive index (315.34 K, x2 = 0.517) was 1.4038 ± 0.0007. It also gave a refractive index (315.5 K, x2 = 0.6) of 1.3989 ± 0.0007, a refractive index (315.54 K, x2 = 0) of 1.4239 ± 0.0007 and a refractive index (315.57 K, x2 = 0.132) of 1.4197 ± 0.0007. It also gave a refractive index (315.59 K, x2 = 0.219) of 1.4166 ± 0.0007, a refractive index (315.71 K, x2 = 0.397) of 1.4094 ± 0.0007 and a refractive index (315.92 K, x2 = 0.291) of 1.4136 ± 0.0007. For the same compound, the refractive index (316.19 K, x2 = 0.689) was 1.3925 ± 0.0007, the refractive index (316.42 K, x2 = 0.517) was 1.4033 ± 0.0007 and the refractive index (316.45 K, x2 = 0.804) was 1.3827 ± 0.0007. It also gave a refractive index (316.55 K, x2 = 0) of 1.4235 ± 0.0007, a refractive index (316.56 K, x2 = 0.6) of 1.3984 ± 0.0007 and a refractive index (316.64 K, x2 = 0.132) of 1.4192 ± 0.0007. The refractive index (316.73 K, x2 = 0.397) was 1.409 ± 0.0007, the refractive index (316.86 K, x2 = 0.872) was 1.3751 ± 0.0007 and the refractive index (317.02 K, x2 = 0.689) was 1.3921 ± 0.0007. For the same compound, the refractive index (317.08 K, x2 = 0.219) was 1.416 ± 0.0007, the refractive index (317.2 K, x2 = 0.291) was 1.4131 ± 0.0007 and the refractive index (317.25 K, x2 = 0.804) was 1.3823 ± 0.0007. The refractive index (317.51 K, x2 = 0.517) was 1.4028 ± 0.0007, the refractive index (317.56 K, x2 = 0) was 1.4231 ± 0.0007 and the refractive index (317.67 K, x2 = 0.132) was 1.4188 ± 0.0007. It also gave a refractive index (317.67 K, x2 = 0.6) of 1.3979 ± 0.0007, a refractive index (317.74 K, x2 = 0.872) of 1.3747 ± 0.0007 and a refractive index (317.81 K, x2 = 0.397) of 1.4085 ± 0.0007. For the same compound, the refractive index (317.89 K, x2 = 0.689) was 1.3917 ± 0.0007, the refractive index (318.06 K, x2 = 0.804) was 1.3819 ± 0.0007 and the refractive index (318.49 K, x2 = 0.291) was 1.4125 ± 0.0007. For the same compound, the refractive index (318.5 K, x2 = 0.219) was 1.4154 ± 0.0007, the refractive index (318.55 K, x2 = 0.872) was 1.3743 ± 0.0007 and the refractive index (318.61 K, x2 = 0) was 1.4226 ± 0.0007. It also gave a refractive index (318.74 K, x2 = 0.132) of 1.4183 ± 0.0007, a refractive index (318.84 K, x2 = 0.689) of 1.3913 ± 0.0007 and a refractive index (318.89 K, x2 = 0.397) of 1.408 ± 0.0007. For the same compound, the refractive index (318.91 K, x2 = 0.804) was 1.3815 ± 0.0007, the refractive index (319.4 K, x2 = 0.872) was 1.3739 ± 0.0007 and the refractive index (319.74 K, x2 = 0.689) was 1.3909 ± 0.0007. It also gave a refractive index (319.79 K, x2 = 0.804) of 1.381 ± 0.0007, a refractive index (320.28 K, x2 = 0.872) of 1.3735 ± 0.0007 and a refractive index (320.64 K, x2 = 0.804) of 1.3806 ± 0.0007.
